Laboratory results taken from patent US8901118B2, “Compounds and methods for kinase modulation, and indications therefor” (Plexxikon Inc., priority 2010, dated 2014).

Assays:
CYP2C19 = CYP2C19 (Homo sapiens, UniProt P33261); assay: CYP2C19 inhibition (fluorescent substrate CEC); assay type: in vitro ADME; details: read-out: Cyp IC50 2C19
Procedure, shortened: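 Test compound titrated 1:1 across ten concentrations; metabolite fluorescence measured after 37 °C incubation of 15 min (CYP1A2), 30 min (CYP2C19, CYP2D6) or 45 min (CYP2C9). IC50 from signal versus concentration.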

Fms kinase = Fms kinase (Homo sapiens, UniProt P07333); assay: Fms kinase biochemical activity assay (AlphaScreen, biotin-(E4Y)10 phosphorylation); details: 100 μM ATP; read-out: Biochemical Inhibition IC50 Fms
Procedure, shortened: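 AlphaScreen read-out (PY20 acceptor, streptavidin donor beads, EDTA stop) of biotin-(E4Y)10 phosphorylation, with IC50 taken from the concentration–signal curve. Reaction: 30 nM substrate, 100 μM ATP, 1 ng/well Fms, Hepes pH 7.5 with Mg2+/Mn2+, 5% DMSO, 20 min at 30 °C.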

Chain of CYP2C19 (P33261 whole entry): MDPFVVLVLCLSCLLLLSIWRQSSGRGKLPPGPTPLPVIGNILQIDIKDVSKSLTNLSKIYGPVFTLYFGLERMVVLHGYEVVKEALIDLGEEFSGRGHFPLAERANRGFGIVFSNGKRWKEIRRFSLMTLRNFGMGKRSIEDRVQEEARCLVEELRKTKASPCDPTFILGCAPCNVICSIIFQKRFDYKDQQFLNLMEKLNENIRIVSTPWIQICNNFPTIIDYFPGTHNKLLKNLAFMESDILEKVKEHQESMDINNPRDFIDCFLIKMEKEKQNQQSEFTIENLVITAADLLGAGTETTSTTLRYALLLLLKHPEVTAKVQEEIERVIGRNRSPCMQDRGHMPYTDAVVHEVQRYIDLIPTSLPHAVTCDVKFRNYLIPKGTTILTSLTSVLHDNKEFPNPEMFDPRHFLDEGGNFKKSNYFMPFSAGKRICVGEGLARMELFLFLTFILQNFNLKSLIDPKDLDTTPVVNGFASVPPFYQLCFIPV
Chain of Fms kinase (P07333 20-972): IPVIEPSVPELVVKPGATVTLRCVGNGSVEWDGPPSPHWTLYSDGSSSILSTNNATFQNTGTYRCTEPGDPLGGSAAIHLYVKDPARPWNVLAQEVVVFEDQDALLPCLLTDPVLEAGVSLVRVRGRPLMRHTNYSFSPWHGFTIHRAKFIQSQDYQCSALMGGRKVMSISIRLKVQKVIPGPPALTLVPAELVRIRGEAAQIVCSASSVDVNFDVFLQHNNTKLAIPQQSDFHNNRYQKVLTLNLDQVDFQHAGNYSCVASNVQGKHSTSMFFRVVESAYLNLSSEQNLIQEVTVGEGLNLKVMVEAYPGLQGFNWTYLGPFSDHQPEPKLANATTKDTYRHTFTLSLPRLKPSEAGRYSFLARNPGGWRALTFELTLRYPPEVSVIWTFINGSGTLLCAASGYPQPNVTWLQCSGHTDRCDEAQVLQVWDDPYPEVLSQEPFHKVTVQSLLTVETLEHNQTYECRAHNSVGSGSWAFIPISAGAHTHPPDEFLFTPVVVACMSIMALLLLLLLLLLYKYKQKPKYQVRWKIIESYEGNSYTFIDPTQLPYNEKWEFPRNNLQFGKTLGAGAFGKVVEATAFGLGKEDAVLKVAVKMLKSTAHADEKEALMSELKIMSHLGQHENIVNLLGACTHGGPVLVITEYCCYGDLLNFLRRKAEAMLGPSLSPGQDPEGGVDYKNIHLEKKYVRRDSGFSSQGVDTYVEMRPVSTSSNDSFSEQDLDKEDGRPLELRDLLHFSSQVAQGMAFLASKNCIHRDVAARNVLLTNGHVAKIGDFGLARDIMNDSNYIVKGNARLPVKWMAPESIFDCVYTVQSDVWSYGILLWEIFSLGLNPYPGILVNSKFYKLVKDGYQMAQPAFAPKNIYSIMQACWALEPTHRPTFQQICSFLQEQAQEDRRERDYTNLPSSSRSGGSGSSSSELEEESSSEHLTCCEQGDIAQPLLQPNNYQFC

Row | IC50 (CYP2C19) | IC50 (Fms kinase) | Compound
1 | > 10 µM | < 0.01 µM | CCOc1ccc(Nc2ccc(Cc3c[nH]c4ncc(C)cc34)c(F)n2)cn1 [Compound P-3039, (6-ethoxy-pyridin-3-yl)-[6-fluoro-5-(5-methyl-1H-pyrrolo[2,3-b]pyridin-3-ylmethyl)-pyridin-2-yl]-amine]
2 | > 10 µM | < 0.1 µM | COc1ccc(Nc2ccc(C(=O)c3c[nH]c4ncc(C)cc34)c(F)n2)cn1 [Compound P-3040, [2-Fluoro-6-(6-methoxy-pyridin-3-ylamino)-pyridin-3-yl]-(5-methyl-1H-pyrrolo[2,3-b]pyridin-3-yl)-methanone]
3 | > 10 µM | < 0.01 µM | CCc1ccc(Nc2ccc(C(=O)c3c[nH]c4ncc(C)cc34)c(F)n2)cn1 [Compound P-3049, [6-(6-Ethyl-pyridin-3-ylamino)-2-fluoro-pyridin-3-yl]-(5-methyl-1H-pyrrolo[2,3-b]pyridin-3-yl)-methanone]
4 | > 10 µM | < 0.01 µM | Cc1cnc2[nH]cc(C(=O)c3ccc(Nc4ccc(C5CC5)nc4)nc3F)c2c1 [Compound P-3051, [6-(6-Cyclopropyl-pyridin-3-ylamino)-2-fluoro-pyridin-3-yl]-(5-methyl-1H-pyrrolo[2,3-b]pyridin-3-yl)-methanone]
5 | > 10 µM | < 0.01 µM | Fc1nc(Nc2ccc(C3CC3)nc2)ccc1Cc1c[nH]c2ncccc12 [Compound P-3053, (6-Cyclopropyl-pyridin-3-yl)-[6-fluoro-5-(1H-pyrrolo[2,3-b]pyridin-3-ylmethyl)-pyridin-2-yl]-amine]
6 | < 5 µM | < 0.01 µM | COc1ccc(Nc2ccc(Cc3c[nH]c4ncnc(OC)c34)c(F)n2)cn1 [Compound P-4001, [6-Fluoro-5-(4-methoxy-7H-pyrrolo[2,3-d]pyrimidin-5-ylmethyl)-pyridin-2-yl]-(6-methoxy-pyridin-3-yl)-amine]
7 | > 10 µM | < 0.1 µM | COc1ccc(Nc2ccc(Cc3c[nH]c4ncnc(C)c34)c(F)n2)cn1 [Compound P-4002, [6-Fluoro-5-(4-methyl-7H-pyrrolo[2,3-d]pyrimidin-5-ylmethyl)-pyridin-2-yl]-(6-methoxy-pyridin-3-yl)-amine]
8 | > 10 µM | < 0.01 µM | CCOc1ccc(Nc2ccc(Cc3c[nH]c4ncnc(OC)c34)c(F)n2)cn1 [Compound P-4005, (6-Ethoxy-pyridin-3-yl)-[6-fluoro-5-(4-methoxy-7H-pyrrolo[2,3-d]pyrimidin-5-ylmethyl)-pyridin-2-yl]-amine]
9 | > 10 µM | < 0.01 µM | CCc1ccc(Nc2ccc(Cc3c[nH]c4ncnc(OC)c34)c(F)n2)cn1 [Compound P-4007, (6-Ethyl-pyridin-3-yl)-[6-fluoro-5-(4-methoxy-7H-pyrrolo[2,3-d]pyrimidin-5-ylmethyl)-pyridin-2-yl]-amine]
10 | > 10 µM | < 0.01 µM | COc1ncnc2[nH]cc(Cc3ccc(Nc4ccc(C)nc4)nc3F)c12 [Compound P-4010, [6-Fluoro-5-(4-methoxy-7H-pyrrolo[2,3-d]pyrimidin-5-ylmethyl)-pyridin-2-yl]-(6-methyl-pyridin-3-yl)-amine]
11 | < 5 µM | < 0.01 µM | CCOc1ncnc2[nH]cc(Cc3ccc(Nc4ccc(OC)nc4)nc3F)c12 [Compound P-4018, [5-(4-Ethoxy-7H-pyrrolo[2,3-d]pyrimidin-5-ylmethyl)-6-fluoro-pyridin-2-yl]-(6-methoxy-pyridin-3-yl)-amine]

The remaining lines, values behind:

Row | Compound | IC50 (CYP2C19) | IC50 (Fms kinase)
12 | Cc1cnc2[nH]cc(Cc3cnc(Nc4ccc(C(F)(F)F)nc4)nc3)c2c1 [Compound P-3018, [5-(5-Methyl-1H-pyrrolo[2,3-b]pyridin-3-ylmethyl)-pyrimidin-2-yl]-(6-trifluoromethyl-pyridin-3-yl)-amine] | > 10 µM | < 0.01 µM
13 | COc1ccc(Nc2ccc(Cc3c[nH]c4ncc(C)cc34)c(F)n2)cn1 [Compound P-3019, [6-fluoro-5-(5-methyl-1H-pyrrolo[2,3-b]pyridin-3-ylmethyl)-pyridin-2-yl]-(6-methoxy-pyridin-3-yl)-amine] | < 5 µM | < 0.01 µM
14 | Cc1cnc2[nH]cc(Cc3ccc(Nc4ccc(C)nc4)nc3F)c2c1 [Compound P-3041, [6-Fluoro-5-(5-methyl-1H-pyrrolo[2,3-b]pyridin-3-ylmethyl)-pyridin-2-yl]-(6-methyl-pyridin-3-yl)-amine] | > 10 µM | < 0.01 µM
15 | Cc1cnc2[nH]cc(C(=O)c3ccc(Nc4ccc(C)nc4)nc3F)c2c1 [Compound P-3043, [2-Fluoro-6-(6-methyl-pyridin-3-ylamino)-pyridin-3-yl]-(5-methyl-1H-pyrrolo[2,3-b]pyridin-3-yl)-methanone] | > 10 µM | < 0.01 µM
16 | Cc1ccc(Nc2ccc(C(=O)c3c[nH]c4ncc(Cl)cc34)c(F)n2)cn1 [Compound P-3044, (5-Chloro-1H-pyrrolo[2,3-b]pyridin-3-yl)-[2-fluoro-6-(6-methyl-pyridin-3-ylamino)-pyridin-3-yl]-methanone] | > 10 µM | < 0.01 µM
17 | CCc1ccc(Nc2ccc(Cc3c[nH]c4ncc(C)cc34)c(F)n2)cn1 [Compound P-3048, (6-Ethyl-pyridin-3-yl)-[6-fluoro-5-(5-methyl-1H-pyrrolo[2,3-b]pyridin-3-ylmethyl)-pyridin-2-yl]-amine] | < 5 µM | < 0.01 µM
18 | Cc1cnc2[nH]cc(Cc3ccc(Nc4ccc(C5CC5)nc4)nc3F)c2c1 [Compound P-3050, (6-Cyclopropyl-pyridin-3-yl)-[6-fluoro-5-(5-methyl-1H-pyrrolo[2,3-b]pyridin-3-ylmethyl)-pyridin-2-yl]-amine] | > 10 µM | < 0.1 µM
19 | O=C(c1ccc(Nc2ccc(C3CC3)nc2)nc1F)c1c[nH]c2ncccc12 [Compound P-3052, [6-(6-Cyclopropyl-pyridin-3-ylamino)-2-fluoro-pyridin-3-yl]-(1H-pyrrolo[2,3-b]pyridin-3-yl)-methanone] | 5 to 10 µM | < 0.1 µM
20 | COc1ncnc2[nH]cc(Cc3ccc(Nc4ccc(Cl)nc4)nc3F)c12 [Compound P-4003, (6-Chloro-pyridin-3-yl)-[6-fluoro-5-(4-methoxy-7H-pyrrolo[2,3-d]pyrimidin-5-ylmethyl)-pyridin-2-yl]-amine] | > 10 µM | < 0.1 µM
21 | COc1ncnc2[nH]cc(Cc3ccc(Nc4ccc(C5CC5)nc4)nc3F)c12 [Compound P-4004, (6-Cyclopropyl-pyridin-3-yl)-[6-fluoro-5-(4-methoxy-7H-pyrrolo[2,3-d]pyrimidin-5-ylmethyl)-pyridin-2-yl]-amine] | > 10 µM | < 0.1 µM
22 | CCOc1ccc(Nc2ccc(Cc3c[nH]c4ncnc(C)c34)c(F)n2)cn1 [Compound P-4006, (6-Ethoxy-pyridin-3-yl)-[6-fluoro-5-(4-methyl-7H-pyrrolo[2,3-d]pyrimidin-5-ylmethyl)-pyridin-2-yl]-amine] | > 10 µM | < 0.01 µM
23 | CCOc1ccc(Nc2ccc(Cc3c[nH]c4ncnc(OCCOC)c34)c(F)n2)cn1 [Compound P-4008, (6-Ethoxy-pyridin-3-yl)-{6-fluoro-5-[4-(2-methoxy-ethoxy)-7H-pyrrolo[2,3-d]pyrimidin-5-ylmethyl]-pyridin-2-yl}-amine] | > 10 µM | < 0.01 µM
24 | CCc1ccc(Nc2ccc(Cc3c[nH]c4ncnc(C)c34)c(F)n2)cn1 [Compound P-4009, (6-Ethyl-pyridin-3-yl)-[6-fluoro-5-(4-methyl-7H-pyrrolo[2,3-d]pyrimidin-5-ylmethyl)-pyridin-2-yl]-amine] | 5 to 10 µM | < 0.01 µM
25 | CCn1cc(Nc2ccc(Cc3c[nH]c4ncnc(OC)c34)c(F)n2)cn1 [Compound P-4011, (1-Ethyl-1H-pyrazol-4-yl)-[6-fluoro-5-(4-methoxy-7H-pyrrolo[2,3-d]pyrimidin-5-ylmethyl)-pyridin-2-yl]-amine] | > 10 µM | < 0.01 µM
26 | CCOc1ncnc2[nH]cc(Cc3ccc(Nc4cnn(CC)c4)nc3F)c12 [Compound P-4012, [5-(4-Ethoxy-7H-pyrrolo[2,3-d]pyrimidin-5-ylmethyl)-6-fluoro-pyridin-2-yl]-(1-ethyl-1H-pyrazol-4-yl)-amine] | > 10 µM | < 0.01 µM
27 | CCn1cc(Nc2ccc(Cc3c[nH]c4ncnc(C)c34)c(F)n2)cn1 [Compound P-4013, (1-Ethyl-1H-pyrazol-4-yl)-[6-fluoro-5-(4-methyl-7H-pyrrolo[2,3-d]pyrimidin-5-ylmethyl)-pyridin-2-yl]-amine] | > 10 µM | < 0.01 µM
28 | CCn1cc(Nc2ccc(Cc3c[nH]c4ncnc(OCCOC)c34)c(F)n2)cn1 [Compound P-4014, (1-Ethyl-1H-pyrazol-4-yl)-{6-fluoro-5-[4-(2-methoxy-ethoxy)-7H-pyrrolo[2,3-d]pyrimidin-5-ylmethyl]-pyridin-2-yl}-amine] | > 10 µM | < 0.01 µM
29 | COCCOc1ncnc2[nH]cc(Cc3ccc(Nc4ccc(C)nc4)nc3F)c12 [Compound P-4015, {6-Fluoro-5-[4-(2-methoxy-ethoxy)-7H-pyrrolo[2,3-d]pyrimidin-5-ylmethyl]-pyridin-2-yl}-(6-methyl-pyridin-3-yl)-amine] | > 10 µM | < 0.1 µM
30 | CCc1ccc(Nc2ccc(Cc3c[nH]c4ncnc(OCCOC)c34)c(F)n2)cn1 [Compound P-4016, (6-Ethyl-pyridin-3-yl)-{6-fluoro-5-[4-(2-methoxy-ethoxy)-7H-pyrrolo[2,3-d]pyrimidin-5-ylmethyl]-pyridin-2-yl}-amine] | > 10 µM | < 0.01 µM
31 | CCOc1ncnc2[nH]cc(Cc3ccc(Nc4ccc(C)nc4)nc3F)c12 [Compound P-4017, [5-(4-Ethoxy-7H-pyrrolo[2,3-d]pyrimidin-5-ylmethyl)-6-fluoro-pyridin-2-yl]-(6-methyl-pyridin-3-yl)-amine] | > 10 µM | < 0.01 µM
